Read-outs that look alike come from different tables or passages of the source.
Columns and labels:
[1] = tested on: M-HeLa cells (human cervix epithelioid carcinoma); assay: MTT cytotoxicity test, M-HeLa; assay type: cell-based
Procedure, shortened: (§1)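 Cells seeded at 5 × 10^3 per well and grown at 37 °C to monolayer, then exposed to compounds for 48 h. Viability by MTT (0.5 mg/mL, serum-free medium, 4 h, 37 °C), formazan dissolved in DMSO, OD 540 nm. IC50 estimated from triplicate experiments.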

[2] = tested on: MCF-7 cells (human breast adenocarcinoma); assay: MTT cytotoxicity test, MCF-7; assay type: cell-based; conditions: Homo sapiens, MCF7, MTT test; 24 h incubation per text, 48 h per method
Procedure, shortened: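 Viable MCF-7 cells quantified by MTT reduction to formazan, dissolved in DMSO and read at 540 nm. Triplicate experiments.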

[3] = tested on: HuTu 80 cells (human duodenal adenocarcinoma); assay: MTT cytotoxicity test, HuTu 80; assay type: cell-based
Procedure, shortened: as §1

[4] = tested on: Chang liver cells (human liver cells, normal cell line); assay: MTT cytotoxicity test, Chang liver normal cells; assay type: cell-based; conditions: 48 h incubation
Source text: For the experiments, we used tumor cell cultures M-HeLa clone 11 (epithelioid carcinoma of the cervix, subline HeLa., clone M-HeLa), HuTu 80 (human duodenal adenocarcinoma) and MCF7 (human breast adenocarcinoma (pleural fluid)) from the collection of the Institute of Cytology, Russian Academy of Sciences (St. Petersburg); human liver cells (Chang liver) from the collection of the Research Institute of Virology at the Russian Academy of Medical Sciences (Moscow); and SH-SY5Y (neuroblastoma)from the Laboratory of Tumor Cell Genetics at the Scientific Research Institute of Carcinogenesis N.N. Blokhin National Medical Research Center of Oncology.
The cytotoxic effect on cells was determined using the colorimetric method of cell proliferation—the MTT test. NADP-H-dependent cellular oxidoreductase enzymes can, under certain conditions, reflect the number of viable cells. These enzymes are able to reduce the tetrazolium dye (MTT)-3-(4,5-dimethylthiazol-2-yl)-2,5-diphenyl-tetrazolium bromide to insoluble blue-violet formazan, which crystallizes inside the cell. The amount of formazan formed is proportional to the number of cells with active metabolism.
Cells were seeded on a 96-well Nunc plate at a concentration of 5 × 10^3 cells per well in a volume of 100 μL of medium and cultured in a CO2 incubator at 37 °C until a monolayer was formed. […] After 48 h, the nutrient medium was removed from the plates and 100 µL of the nutrient medium without serum with MTT at a concentration of 0.5 mg/mL was added and incubated for 4 h at 37 °C. Formazan crystals were […] 100 µL of DMSO in each well. Optical density was recorded at 540 nm on an in vitro logic microplate reader (Russia). The experiments for all compounds were repeated in triplicate.
IC50 values were estimated using the Quest Graph IC50 Calculator (AAT Bioquest, Inc., Sunnyvale, CA, USA) (Version 2022) (accessed on 25 June 2022).

DPPH antiradical assay = conditions: DPPH 100 μM
Procedure: Figure 4 Antioxidant potential of the tested compounds. (a) Inhibition of lipid peroxidation (LPO) in rat brain homogenates (2 mg/mL) initiated by Fe(II) ions (concentration of 500 µM) in the tested compounds at a concentration of 100 µM. (b) Concentration dependences of LPO inhibition for the studied compounds in the concentration range from 1 µM to 100 µM. (c) Oxygen Radical Absorbance Capacity (ORAC) of the studied compounds and ORAC values expressed as Trolox equivalent (TE). (d) DPPH antiradical activity of the compounds under study and DPPH values expressed as TE. The concentration of studied compounds and Trolox was 100 µM, the concentration of DPPH was 100 μM, and the concentration of AAPH was […]. Statistical significance was assessed using one-way ANOVA and Dunnett’s multiple comparison tests, where **** p < 0.0001, *** p < 0.001 and ** p < 0.01 vs. control. […]

HuTu 80 cells = assay: Intracellular ROS level, CellROX Deep Red flow cytometry; assay type: cell-based, human; conditions: 48 h incubation, maximum concentration (IC50)

Compound: CCOP(=O)(OCC)C(c1cc(C(C)(C)C)c(O)c(C(C)(C)C)c1)c1ccc(NC(=O)Nc2ccc([N+](=O)[O-])cc2)cc1NC(=O)Nc1ccc([N+](=O)[O-])cc1 (stereo not drawn) [17b]
- IC50 ([1]; Homo sapiens, M-HeLa, MTT test, 24 h incubation per text, 48 h per method): 24.3 ± 1.9 µM
- SI, selectivity index relative to Chang liver, M-HeLa ([1]; M-HeLa vs Chang liver): ~3
- IC50 [2]: 51 ± 4.2 µM
- IC50 ([3]; Homo sapiens, HuTu80, read-out: IC50, HuTu 80): < 15 µM
- IC50 ([3]; read-out: IC50, HuTu 80): 13.2 µM
- IC50 [4]: 74 ± 5.9 µM
- DPPH antiradical activity (DPPH antiradical assay; compound 100 µM): 64.8 ± 0.7%
- DPPH value (Trolox equivalent) (DPPH antiradical assay; compounds and Trolox 100 µM): 1.27 Trolox equivalent
- Intracellular ROS level (HuTu 80 cells): 400.2 ± 5.2%

Reference: article PMC10454409, “Hybrids of Sterically Hindered Phenols and Diaryl Ureas: Synthesis, Switch from Antioxidant Activity to ROS Generation and Induction of Apoptosis” (International Journal of Molecular Sciences, 2023)
